Among the test systems are SW-620 colon; DU-145 prostate; K-562 leukemia; TK-10 renal; SF-268 CNS; NCI-H460 lung; HOP-92 NSCLC; RXF 393 renal; MOLT-4 leukemia; U251 CNS.
Holding throughout (assay): NCI anticancer screen, dose series, 48 h

“And” between values parts separate entries of the source, which are not always exact repeats. Equal entries are not always repeated.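 A five-concentration, 48-hour dose response in 96-well plates underlies each endpoint, interpolated linearly between surrounding concentrations. GI50 is the concentration that inhibits growth by half. TGI denotes the concentration required for complete inhibition of growth.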

Consider `CCC1=C(C)/C(=C/c2[nH]c(C)c(C(=O)CCCCC(=O)OC)c2C)N=C1c1ccc[nH]1`, for which the GI50 with SW-620 colon was 2.18 µM; in the test with DU-145 prostate, 12.2 µM; in the test on K-562 leukemia it was 3.47 µM; in the test with TK-10 renal it was 24.5 µM; in the test on SF-268 CNS, 7.15 µM; in the test with NCI-H460 lung it was 37.6 µM. The GI50 with HOP-92 NSCLC is 3.95 µM; in the test on RXF 393 renal it was 11.9 µM; in the test with MOLT-4 leukemia, 0.995 µM; in the test on U251 CNS, 12.6 µM. Also, the TGI is 4.82 µM in the test on SW-620 colon; 24.6 µM in the test on DU-145 prostate; 16.7 µM in the test on K-562 leukemia; 71.1 µM with TK-10 renal; 47.7 µM in the test with SF-268 CNS; above 100 µM in the test on NCI-H460 lung. Besides, the TGI worked out at 15.4 µM with HOP-92 NSCLC, 38.6 µM in the test with RXF 393 renal, 6.92 µM in the test with MOLT-4 leukemia and 33.1 µM in the test with U251 CNS.

With `COc1ccc(C(=O)Cn2c(C(=O)c3ccc(OC)cc3)nc3ccccc32)cc1`, the GI50 in the test with SW-620 colon is 0.816 µM; in the test on DU-145 prostate it was 4.31 µM; with K-562 leukemia, 0.483 µM; with TK-10 renal, 4.8 µM; in the test with SF-268 CNS, 6.25 µM; in the test with NCI-H460 lung it was 3.73 µM. In addition, the GI50 with HOP-92 NSCLC was above 100 µM; in the test on RXF 393 renal, 2.07 µM; in the test on MOLT-4 leukemia, 0.861 µM; in the test on U251 CNS, 3.16 µM. Also, the TGI with SW-620 colon, in the test with DU-145 prostate, in the test on K-562 leukemia, with TK-10 renal, in the test with SF-268 CNS and in the test on NCI-H460 lung was above 100 µM in each case. In addition, the TGI in the test on HOP-92 NSCLC was above 100 µM; in the test with RXF 393 renal it was above 23.2 µM; with MOLT-4 leukemia it was above 100 µM; with U251 CNS, above 100 µM.

`CCn1c(=O)c(-c2ccn[nH]2)cc2c(C)nc(N)nc21`: the GI50 with SW-620 colon is 2.85 µM; with DU-145 prostate, 2.34 µM; with K-562 leukemia, 14.7 µM; with TK-10 renal, 0.871 µM; with SF-268 CNS, 1.53 µM; in the test on NCI-H460 lung, 1.4 µM. Further, the GI50 was 0.213 µM in the test with HOP-92 NSCLC, 0.426 µM in the test with RXF 393 renal, 0.846 µM in the test on MOLT-4 leukemia and 3.75 µM in the test with U251 CNS. Further, the TGI in the test on SW-620 colon is above 100 µM; in the test on DU-145 prostate, above 100 µM; with K-562 leukemia, above 100 µM; in the test with TK-10 renal, 4.62 µM; in the test on SF-268 CNS, above 100 µM; in the test on NCI-H460 lung, above 100 µM. The TGI was 1.56 µM in the test with HOP-92 NSCLC, 2.47 µM in the test with RXF 393 renal, 51 µM in the test on MOLT-4 leukemia and above 100 µM with U251 CNS.

For the compound `Nc1c(C(=O)Nc2ccccc2)sc2nc3c(cc12)CCCCCC3`, the GI50 is 0.36 µM in the test with SW-620 colon; 0.445 µM in the test with DU-145 prostate; 0.307 µM in the test on K-562 leukemia; 0.883 µM in the test on TK-10 renal; 1.14 µM in the test with SF-268 CNS; 0.352 µM in the test on NCI-H460 lung. The GI50 was 0.523 µM in the test on HOP-92 NSCLC, 0.432 µM in the test with RXF 393 renal, 0.422 µM in the test on MOLT-4 leukemia and 0.395 µM with U251 CNS. The TGI in the test on SW-620 colon was 50.9 µM; in the test with DU-145 prostate, 12.3 µM; in the test on K-562 leukemia, above 41.3 µM; in the test on TK-10 renal, 5.2 µM; with SF-268 CNS, 20.1 µM; in the test with NCI-H460 lung it was 3.91 µM. The TGI in the test on HOP-92 NSCLC was 5.1 µM; with RXF 393 renal it was 2.18 µM; in the test on MOLT-4 leukemia it was above 50.9 µM; with U251 CNS it was 7.78 µM.

As to `CCNC(=O)C[C@@H]1N=C(c2ccc(Cl)cc2)c2cc(OC)ccc2-n2c(C)nnc21`, the GI50 was above 31 µM in the test on SW-620 colon; above 100 µM in the test on DU-145 prostate; 4.18 µM in the test on K-562 leukemia; 0.645 µM in the test on TK-10 renal; above 53.6 µM with SF-268 CNS; above 100 µM in the test with NCI-H460 lung. Besides, the GI50 in the test on HOP-92 NSCLC is 0.548 µM; in the test with RXF 393 renal it was 8.9 µM; in the test with MOLT-4 leukemia, above 44.2 µM; in the test with U251 CNS, above 67.8 µM. The TGI in the test with SW-620 colon is above 100 µM; in the test with DU-145 prostate, above 100 µM; in the test with K-562 leukemia, above 100 µM; in the test with TK-10 renal it was above 53.8 µM; in the test on SF-268 CNS it was above 100 µM; in the test with NCI-H460 lung, above 100 µM. Further, the TGI in the test with HOP-92 NSCLC, in the test with RXF 393 renal, in the test on MOLT-4 leukemia and with U251 CNS was above 100 µM each time.

Consider `CC(C)(C)[Si](C)(C)OCC1CCC(n2cnc3c(NC(=O)c4ccccc4)ncnc32)O1` (stereo not given), for which the TGI was determined as 35 µM in the test with SW-620 colon; 37 µM in the test with DU-145 prostate; 39.5 µM with K-562 leukemia; 38.6 µM in the test on TK-10 renal; 33.4 µM with SF-268 CNS; 32 µM in the test with NCI-H460 lung. Further, the TGI was 31.6 µM in the test with HOP-92 NSCLC, 37.8 µM in the test on RXF 393 renal, 39.6 µM in the test on MOLT-4 leukemia and 32.9 µM in the test with U251 CNS.

Take `COc1cc(/C=C(/C)[N+](=O)[O-])ccc1O`: the GI50 with SW-620 colon was 1.69 µM and 1.57 µM; in the test with DU-145 prostate, 2.01 µM and 1.59 µM; with K-562 leukemia it was 1.47 µM; in the test with TK-10 renal, 1.97 µM and 1.48 µM; in the test on SF-268 CNS it was 2.73 µM and 1.92 µM; with NCI-H460 lung, 2.52 µM and 2.22 µM. Moreover, the GI50 in the test on HOP-92 NSCLC is 1.62 µM and 1.84 µM; in the test with RXF 393 renal, 1.72 µM and 1.8 µM; with MOLT-4 leukemia, 3.3 µM; in the test on U251 CNS it was 1.77 µM and 1.87 µM. Also, the TGI was 3.67 µM and 3.11 µM in the test with SW-620 colon; 4.11 µM and 3.26 µM in the test with DU-145 prostate; above 100 µM in the test on K-562 leukemia; 3.57 µM and 2.82 µM in the test with TK-10 renal; 6.94 µM and 4.51 µM in the test on SF-268 CNS; 7.15 µM and 6.05 µM with NCI-H460 lung. Also, the TGI with HOP-92 NSCLC was 4.4 µM and 4.28 µM; with RXF 393 renal, 3.24 µM and 3.31 µM; in the test on MOLT-4 leukemia it was 9.14 µM; in the test with U251 CNS it was 3.79 µM and 3.7 µM.

As for `O=C1OC(c2ccco2)=N/C1=C\c1ccc(Cl)c(Cl)c1`, the TGI in the test on SW-620 colon, in the test with DU-145 prostate, with K-562 leukemia, with TK-10 renal, in the test with SF-268 CNS and in the test on NCI-H460 lung was above 100 µM throughout. The TGI in the test on HOP-92 NSCLC, in the test with RXF 393 renal, in the test with MOLT-4 leukemia and with U251 CNS was above 100 µM in each case.

`C=C1C(=O)O[C@H]2[C@H]1CC/C(COC(=O)C(=O)c1c[nH]c3ccccc13)=C\CC[C@@]1(C)O[C@@H]21`: the GI50 in the test on SW-620 colon was 3.09 µM; in the test with DU-145 prostate, 3.12 µM; in the test with K-562 leukemia, 2.28 µM; in the test with TK-10 renal, 1.38 µM; in the test on SF-268 CNS it was 2.39 µM; in the test on NCI-H460 lung, 4.03 µM. Further, the GI50 with HOP-92 NSCLC was 2.04 µM; in the test on RXF 393 renal, 2.01 µM; with MOLT-4 leukemia, 2.2 µM; in the test with U251 CNS, 1.86 µM. The TGI in the test on SW-620 colon was 16.6 µM; with DU-145 prostate it was 11.8 µM; with K-562 leukemia, 9.5 µM; with TK-10 renal it was 2.81 µM; with SF-268 CNS, 7.68 µM; in the test with NCI-H460 lung, 20.7 µM. Further, the TGI amounted to 4.49 µM in the test with HOP-92 NSCLC, 3.61 µM in the test on RXF 393 renal, 7.3 µM in the test with MOLT-4 leukemia and 3.64 µM with U251 CNS.

For `Oc1ccc(C(c2ccccc2)(c2ccccc2)c2ccccc2)cc1`, the GI50 in the test with SW-620 colon is 22.4 µM; with DU-145 prostate, 13.3 µM; in the test with K-562 leukemia, 24.9 µM; in the test with TK-10 renal it was 36.7 µM; with SF-268 CNS, 21.5 µM; in the test on NCI-H460 lung, 15.3 µM. Moreover, the GI50 with HOP-92 NSCLC was 17.8 µM; with RXF 393 renal, 10.4 µM; in the test on MOLT-4 leukemia it was 17.8 µM; in the test with U251 CNS, 28.9 µM. The TGI in the test on SW-620 colon was determined as 66.1 µM; in the test with DU-145 prostate, 27.8 µM; in the test on K-562 leukemia, 61.2 µM; in the test with TK-10 renal, 87.4 µM; in the test with SF-268 CNS, 69.4 µM; in the test on NCI-H460 lung it was 48.1 µM. In addition, the TGI is 34.1 µM with HOP-92 NSCLC, 25 µM in the test with RXF 393 renal, 36.6 µM in the test with MOLT-4 leukemia and above 100 µM with U251 CNS.

For the compound `O=C(/C=C/c1ccco1)c1ccc(Nc2nc(Nc3ccc(F)cc3)nc(Nc3ccc(Cl)cc3)n2)cc1`, the GI50 is 24.5 µM in the test on SW-620 colon; 30.9 µM in the test with DU-145 prostate; 24.3 µM in the test with K-562 leukemia; 10.3 µM in the test on TK-10 renal; 34.8 µM in the test with SF-268 CNS; 9.29 µM in the test with NCI-H460 lung. Also, the GI50 in the test with HOP-92 NSCLC was 2.69 µM; with RXF 393 renal, 7.09 µM; with MOLT-4 leukemia it was above 19.8 µM; in the test with U251 CNS, 19.5 µM. The TGI is above 63.3 µM with SW-620 colon; above 74.7 µM with DU-145 prostate; above 64.8 µM with K-562 leukemia; above 35.9 µM in the test with TK-10 renal; above 86.4 µM in the test on SF-268 CNS; 31.9 µM with NCI-H460 lung. Further, the TGI in the test with HOP-92 NSCLC is above 45.4 µM; in the test on RXF 393 renal, 45.9 µM; with MOLT-4 leukemia it was above 49.7 µM; with U251 CNS it was 53.8 µM.

As for `O=C(Nc1ccc(Cl)c([N+](=O)[O-])c1)Nc1nc2ccccc2s1`, the GI50 with SW-620 colon was 3.38 µM; in the test on DU-145 prostate, 4.22 µM; in the test on K-562 leukemia it was 4.15 µM; in the test with TK-10 renal it was 4.26 µM; in the test with SF-268 CNS, 4.49 µM; in the test with NCI-H460 lung it was 2.93 µM. Also, the GI50 with HOP-92 NSCLC is 2.34 µM; in the test on RXF 393 renal, 3.76 µM; in the test with MOLT-4 leukemia, 3.76 µM; in the test with U251 CNS it was 3.36 µM. The TGI in the test on SW-620 colon was 14.5 µM; with DU-145 prostate, 14.6 µM; with K-562 leukemia it was above 100 µM; with TK-10 renal it was 12.8 µM; with SF-268 CNS, 16.6 µM; in the test on NCI-H460 lung, 9.45 µM. Besides, the TGI in the test with HOP-92 NSCLC stood at 7.06 µM; with RXF 393 renal it was 11.4 µM; in the test with MOLT-4 leukemia, 17.1 µM; with U251 CNS, 13.4 µM.

The record behind these values is PubChem BioAssay (NCI).
